“And” between values parts separate entries of the source, which are not always exact repeats. Equal entries are not always repeated. “Also recorded” adds a separate entry of the source. Where two headings read alike, the source gives them in different places.
What was measured:
hERG channels = hERG channels (Homo sapiens, UniProt Q12809); test: hERG current inhibition, automated planar patch clamp in HEK293 cells stably expressing hERG
Protocol: (§1) Currents were low‐pass filtered at 10 kHz using the internal Bessel filter and sampled at 25 kHz. The extracellular solution for hERG current recording contained 140 mM NaCl, 4 mM KCl, 2 mM CaCl2, 1 mM MgCl2,5 mM D‐glucose and 10 mM HEPES (pH 7.4) (Sigma‐Aldrich). The intracellular solution for hERG current recording contained 50 mM KCl, 10 mM NaCl, 60 mM KF, 20 mM EGTA and 10 mM HEPES (pH 7.2). The extracellular solution for measuring sodium currents in HEK cells stably expressing the human clone of Nav1.5 (GenBank M77235) contained 4 mM KCl, 20 mM NaCl, 1.8 mM CaCl2, 0.75 mM MgCl2, 5 mM HEPES, 120 mM choline chloride and pH 7.4 using NaOH. The intracellular solution for sodium current recording contained 120 mM CsF, 20 mM CsCl, 5 mM EGTA, 5 mM HEPES and pH 7.4 using CsOH. All chemicals were obtained from Sigma‐Aldrich Chemie GmbH (Taufkirchen, Germany). The compound solutions were applied by means of the automated NPC‐16 Patchliner planar patch‐clamp platform.
Data are presented as mean ± SEM for at least five cells from two different batches or for three independent measurements with HEK293 cells.
The concentration–inhibition relationships were analysed by plotting the normalized values of peak tail current versus peak tail steady current in the presence of the respective cumulatively applied compound concentrations (Figure 4B, C). Data points were fitted using Hill equation.

hiPSC-CMs = test: Optical measurement of action potential duration (APD90) in hiPSC-CMs using voltage-sensitive dye di-4-ANEPPS; conditions: for Maximal AP prolongation: maximal level over concentrations tested
Protocol: The plates were then incubated at 37°C, 5% CO2. Forty‐eight hours post‐thaw, 100% of the plating medium was replaced with CDI Maintenance Medium (CDI, CMC‐100‐120‐001), and further, 100% media changes were performed every 2 days after that.
Afterwards, the medium containing VSD was replaced by fresh serum‐free medium, and the cells were returned to the incubator. The multi‐well plate was placed in an environmentally controlled stage incubator (37°C, 5% CO2, water‐saturated air atmosphere) (Okolab Inc, Burlingame, CA, USA) of the CelIOPTIQ platform (Clyde Biosciences Ltd, Glasgow, Scotland). The di‐4‐ANEPPS fluorescence signal was recorded from a 0.2 × 0.2 mm area using a 40× (NA 0.6) objective lens. Excitation wavelength was 470 ± 10 nm using a light‐emitting diode (LED), and emitted light was collected by two photomultipliers (PMTs) at 510–560 and 590–650 nm respectively. LED, PMT, associated power supplies and amplifiers were supplied by Cairn Research Ltd (Kent, UK). […] A 20 s recording was then taken 30 min after exposure to the drug or vehicle with only one concentration applied per well. The records were subsequently analysed offline using proprietary software (CellOPTIQ). The procedure was repeated from four to five times, and parallel matched control (vehicle) measurements were taken on cardiomyocytes with equivalent concentrations of vehicle (DMSO). AP parameters were measured, including APD at 50, 75 and 90% repolarization (APD50, APD75 and APD90 respectively). Data are given as % change from control for the treated groups (vehicle, control and drug). This allowed a single comparison to be made at each concentration, and every experiment was performed with its own set of controls (vehicle). No data were used more than once.

hERG potassium channels = conditions: cited from earlier work
Nav1.5 = Nav1.5 (Homo sapiens, UniProt Q14524); test: Sodium current inhibition in HEK cells stably expressing Nav1.5, planar patch clamp
Chain of Nav1.5 (Q14524 whole entry): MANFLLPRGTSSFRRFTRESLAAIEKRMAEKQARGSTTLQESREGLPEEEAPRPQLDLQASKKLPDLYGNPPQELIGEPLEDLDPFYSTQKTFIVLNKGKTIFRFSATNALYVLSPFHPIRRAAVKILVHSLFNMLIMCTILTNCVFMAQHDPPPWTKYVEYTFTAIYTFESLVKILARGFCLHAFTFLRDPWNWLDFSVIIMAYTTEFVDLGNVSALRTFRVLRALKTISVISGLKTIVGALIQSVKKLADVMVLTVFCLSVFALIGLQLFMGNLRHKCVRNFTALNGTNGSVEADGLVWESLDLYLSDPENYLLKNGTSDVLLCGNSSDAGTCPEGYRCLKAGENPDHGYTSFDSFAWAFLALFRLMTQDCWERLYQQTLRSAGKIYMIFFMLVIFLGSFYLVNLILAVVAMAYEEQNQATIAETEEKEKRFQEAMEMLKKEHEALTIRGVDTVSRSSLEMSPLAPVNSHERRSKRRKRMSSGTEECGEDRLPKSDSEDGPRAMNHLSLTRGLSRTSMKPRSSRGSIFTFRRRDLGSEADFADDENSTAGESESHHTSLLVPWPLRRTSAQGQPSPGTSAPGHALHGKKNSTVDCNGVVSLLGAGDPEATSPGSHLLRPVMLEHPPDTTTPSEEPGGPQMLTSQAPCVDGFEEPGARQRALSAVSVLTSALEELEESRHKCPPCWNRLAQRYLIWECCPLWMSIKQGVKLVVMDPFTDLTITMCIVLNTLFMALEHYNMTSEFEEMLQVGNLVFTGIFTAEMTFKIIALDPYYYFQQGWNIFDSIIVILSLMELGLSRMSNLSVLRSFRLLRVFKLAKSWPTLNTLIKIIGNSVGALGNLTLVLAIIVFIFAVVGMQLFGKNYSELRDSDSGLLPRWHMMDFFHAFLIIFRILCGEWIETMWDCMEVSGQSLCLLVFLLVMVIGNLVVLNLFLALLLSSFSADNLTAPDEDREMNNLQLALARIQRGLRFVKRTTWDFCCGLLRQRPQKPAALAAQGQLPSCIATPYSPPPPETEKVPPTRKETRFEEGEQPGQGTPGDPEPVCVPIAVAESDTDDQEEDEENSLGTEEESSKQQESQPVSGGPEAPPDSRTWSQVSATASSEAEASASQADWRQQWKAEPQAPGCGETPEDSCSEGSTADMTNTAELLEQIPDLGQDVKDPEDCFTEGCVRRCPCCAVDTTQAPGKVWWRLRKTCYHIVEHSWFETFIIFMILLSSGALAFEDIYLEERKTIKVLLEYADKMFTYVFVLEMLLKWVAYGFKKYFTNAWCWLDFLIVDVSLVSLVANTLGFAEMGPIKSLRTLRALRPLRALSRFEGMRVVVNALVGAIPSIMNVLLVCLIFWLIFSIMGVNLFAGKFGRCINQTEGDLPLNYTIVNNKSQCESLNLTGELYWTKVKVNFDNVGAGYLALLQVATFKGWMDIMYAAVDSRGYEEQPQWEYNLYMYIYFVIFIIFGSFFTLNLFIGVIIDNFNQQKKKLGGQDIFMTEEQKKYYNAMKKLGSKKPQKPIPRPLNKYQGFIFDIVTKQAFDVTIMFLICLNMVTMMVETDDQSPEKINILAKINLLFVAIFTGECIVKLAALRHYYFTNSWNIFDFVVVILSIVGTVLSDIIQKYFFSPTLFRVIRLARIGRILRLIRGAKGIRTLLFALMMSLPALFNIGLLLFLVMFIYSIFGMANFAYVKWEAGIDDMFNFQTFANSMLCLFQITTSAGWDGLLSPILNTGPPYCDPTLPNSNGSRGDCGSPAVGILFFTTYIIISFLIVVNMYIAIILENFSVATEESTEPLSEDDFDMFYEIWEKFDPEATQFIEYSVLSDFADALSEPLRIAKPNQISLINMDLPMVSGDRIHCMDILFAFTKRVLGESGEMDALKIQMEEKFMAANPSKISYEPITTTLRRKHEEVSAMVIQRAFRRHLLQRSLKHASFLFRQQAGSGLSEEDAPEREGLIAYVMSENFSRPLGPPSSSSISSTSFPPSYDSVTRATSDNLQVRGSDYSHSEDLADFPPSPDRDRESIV
Protocol: as §1

[1] = molecular target: Cav1.2 (rabbit α1-subunit with β2a and α2-δ1) (Oryctolagus cuniculus, UniProt P15381); test: Barium current (IBa) inhibition through Cav1.2 in transfected tsA-201 cells, manual patch clamp; conditions: rabbit
Protocol: (§2) The transfection of tsA‐201 cells was performed using the FUGENE6 Transfection Reagent (Roche Diagonstics GmbH, Mannheim, Germany) following standard protocols. The tsA‐201 cells were used until passage number 15. […] The extracellular bath solution (in mM: BaCl2 20, MgCl2 1, HEPES 10, choline‐Cl 90) was titrated to pH 7.4 with methanesulfonic acid. […] The drugs were applied to cells under voltage clamp using a microminifold perfusion system. Ca^2+ channel block was estimated as peak IBa inhibition during a train of short (50 ms) test pulses from −80 mV at a frequency of 0.2 Hz. Patch clamp experiments to study hERG, Nav1.5 and Cav1.2 currents were performed at room temperature (22–25°C). All data were digitized and saved to disc. Current traces were filtered at 5 kHz and sampled at 10 kHz. The pClamp software package (Version 7.0 Axon Instruments, Inc.) was used for data acquisition and preliminary analysis. Microcal Origin 7.0 was used for analysis, and sigmoidal curves were fitted using the Hill equation.
(§3) Use‐dependent channel inhibition was studied during trains of 1 Hz and 50 ms test pulses (from −80 to +10 mV). After the application of 20 test pulses in control (absence of drug), the cells were incubated for 3 min with drug at rest. Peak current inhibition during the first pulse (1st, Figure 6C) in the presence of the drug reflects ‘resting state’ block. Additional current inhibition during a subsequently applied pulse train illustrates use‐dependent block. Peak current inhibition in control and drug are compared in Figure 6D.

[2] = molecular target: rabbit CaV1.2 α1-subunit with β2a and α2-δ1 (Oryctolagus cuniculus, UniProt P15381); test: as above; conditions: for Peak current decay after 20 pulses at 1 Hz (use-dependent block): 50 ms pulses from -80 to +10 mV, control 12 ± 2%; for Resting state and use-dependent block of Cav1.2: 1 Hz trains of 50 ms pulses after 3 min incubation at rest
Protocol: as §2, §3

[3] = Homo sapiens, 0.5 h, read-out: Changes in APD90 in hiPSC-CMs
[4] = Homo sapiens, read-out: D150 (concentration that prolongs the AP by 50%), APD90 in hiPSC-CMs
[5] = read-out: Ki binding studies, radioligand binding, ref Shagufta et al 2009
[6] = Homo sapiens, 0.5 h, read-out: Changes in APD90 in hiPSC-CMs, 1 nM, 30 min exposure
[7] = Homo sapiens, 0.5 h, read-out: Changes in APD90 in hiPSC-CMs, 10 nM, 30 min exposure
[8] = Homo sapiens, 0.5 h, read-out: Changes in APD90 in hiPSC-CMs, 30 nM, 30 min exposure
[9] = Homo sapiens, 0.5 h, read-out: Changes in APD90 in hiPSC-CMs, 100 nM, 30 min exposure
[10] = Homo sapiens, 0.5 h, read-out: Changes in APD90 in hiPSC-CMs, 300 nM, 30 min exposure
[11] = Homo sapiens, read-out: D150 (concentration that prolongs the AP by 50%)
[12] = Nav1.5 IC50 (peak INa inhibition), holding potential -140 mV, 0.2 Hz

Chain of hERG channels (Q12809 whole entry): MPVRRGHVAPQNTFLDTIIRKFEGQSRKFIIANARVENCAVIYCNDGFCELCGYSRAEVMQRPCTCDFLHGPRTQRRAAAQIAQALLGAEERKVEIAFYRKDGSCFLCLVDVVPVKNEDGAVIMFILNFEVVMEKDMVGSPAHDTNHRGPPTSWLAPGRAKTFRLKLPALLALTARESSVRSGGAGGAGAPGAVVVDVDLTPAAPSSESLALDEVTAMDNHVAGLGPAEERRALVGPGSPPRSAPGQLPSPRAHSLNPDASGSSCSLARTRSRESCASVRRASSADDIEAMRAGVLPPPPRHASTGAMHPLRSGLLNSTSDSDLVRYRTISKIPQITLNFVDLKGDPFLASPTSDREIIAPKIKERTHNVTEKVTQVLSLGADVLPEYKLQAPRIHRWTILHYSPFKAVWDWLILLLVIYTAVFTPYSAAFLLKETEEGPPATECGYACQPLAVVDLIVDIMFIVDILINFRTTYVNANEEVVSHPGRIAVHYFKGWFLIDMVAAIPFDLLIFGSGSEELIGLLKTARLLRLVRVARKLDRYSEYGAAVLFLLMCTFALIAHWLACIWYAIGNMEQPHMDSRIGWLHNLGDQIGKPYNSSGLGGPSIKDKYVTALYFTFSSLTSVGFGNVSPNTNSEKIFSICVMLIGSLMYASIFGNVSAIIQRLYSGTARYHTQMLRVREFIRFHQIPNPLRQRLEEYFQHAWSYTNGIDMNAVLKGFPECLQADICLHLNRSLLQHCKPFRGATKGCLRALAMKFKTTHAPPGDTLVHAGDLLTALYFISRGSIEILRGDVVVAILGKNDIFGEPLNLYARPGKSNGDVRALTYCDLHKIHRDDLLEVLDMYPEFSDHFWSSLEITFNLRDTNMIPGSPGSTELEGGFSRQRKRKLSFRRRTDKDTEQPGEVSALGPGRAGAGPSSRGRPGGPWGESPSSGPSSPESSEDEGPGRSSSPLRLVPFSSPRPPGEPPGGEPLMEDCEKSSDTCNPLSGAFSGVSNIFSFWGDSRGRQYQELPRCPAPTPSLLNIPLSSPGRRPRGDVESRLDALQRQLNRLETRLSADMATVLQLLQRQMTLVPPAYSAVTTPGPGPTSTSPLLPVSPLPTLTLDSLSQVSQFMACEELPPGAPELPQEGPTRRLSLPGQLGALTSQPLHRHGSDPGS

Row | SMILES | IC50 (hERG channels) | activity at 0.01 µM (hiPSC-CMs; [3]) | activity at 0.1 µM (hiPSC-CMs; [3]) | activity at 0.3 µM (hiPSC-CMs; [3]) | activity at 1 µM (hiPSC-CMs; [3]) | EC (50% APD prolongation) (hiPSC-CMs; [4]) | Incidence of EADs (hiPSC-CMs; hiPSC-CMs) | Ki (hERG potassium channels; [5]) | Maximal AP prolongation (hiPSC-CMs; hiPSC-CMs) | activity at 0.001 µM (hiPSC-CMs; [6]) | activity at 0.01 µM (hiPSC-CMs; [7]) | activity at 0.03 µM (hiPSC-CMs; [8]) | EC (50% APD prolongation) (hiPSC-CMs; [11]) | further results
1 | CN(CCOc1ccccc1)CCc1ccccc1 [Dofe30] | 297 ± 77.5 nM | 99% | 105% | 190% | 140% | 0.213 µM | without (if any) incidence of EADs | > 10000 nM | – | – | – | – | – | activity at 0.03 µM (hiPSC-CMs; [3]): 92%
2 | CN(CCOc1ccc(Cl)cc1)CCc1ccc(Cl)cc1 [Dofe31] | – | 100% | 108% | 214% | 296% | 0.151 µM | – | – | – | – | – | – | – | Incidence of EADs (hiPSC-CMs): without (if any) incidence of EADs; activity at 0.001 µM (hiPSC-CMs; [3]): 127%; activity at 0.03 µM (hiPSC-CMs; [3]): 103%
3 | Cc1ccc(CCN(C)CCOc2ccc(C)cc2)cc1 [Dofe33] | – | – | – | – | – | – | – | – | 250% | – | – | – | – | Effect on APD90 / AP prolongation (in words) (hiPSC-CMs): negligible effect on APD90 prolongation until 100 nM
4 | CN(CCOc1ccc([N+](=O)[O-])cc1)CCc1ccc([N+](=O)[O-])cc1 [Dofe35] | 22.1 nM | – | – | – | – | – | incidence of EADs at the higher concentrations | – | ≤ 1000% | 102% | 159% | 770% | 0.0083 µM | activity at 0.1 µM (hiPSC-CMs; [9]): 746%; activity at 0.3 µM (hiPSC-CMs; [10]): 650%; Ki (hERG potassium channels): 5.7 ± 3 nM
5 | CN(CCOc1ccc(Cl)cc1)CCc1ccccc1 [Dofe41] | – | 140% | 144% | 162% | 262% | 0.157 µM | without (if any) incidence of EADs | – | – | – | – | – | – | –
6 | COc1ccc(OCCN(C)CCc2ccccc2)cc1 [Dofe42] | 213 ± 83.5 nM | 113% | 92% | 95% | 98% | > 0.6 µM | – | 3.3 ± 2 nM | – | – | – | – | – | Shift of Nav1.5 concentration-response curve towards lower concentrations (Nav1.5; -80 mV versus -140 mV holding potential): 5.6 fold; IC50 (Nav1.5; Nav1.5 IC50 (peak INa inhibition), holding potential -80 mV): 13800 ± 1900 nM; IC50 (Nav1.5; [12]): 77900 ± 9700 nM; Effect on APD90 / AP prolongation (in words) (hiPSC-CMs; hiPSC-CMs): did not affect APD90 even at 1 μM; also recorded: did not induce prolongation of AP; IC50 ([1]; pH 7.4, Cav1.2 IC50 (peak IBa inhibition), 0.2 Hz, 50 ms pulses from -80 to +10 mV): 38000 ± 9300 nM; Peak current decay after 20 pulses at 1 Hz (use-dependent block) ([2]; 100 μM): 38 ± 2%; Resting state and use-dependent block of Cav1.2 [2]: pronounced resting state block and additional use‐dependent block
7 | Cc1ccc(OCCN(C)CCc2ccccc2)cc1 [Dofe43] | – | 167% | 156% | 175% | 390% | 0.0993 µM | without (if any) incidence of EADs | – | – | – | – | – | – | –
8 | CN(CCOc1ccc([N+](=O)[O-])cc1)CCc1ccccc1 [Dofe45] | – | 71% | 89% | 95% | 215% | 0.538 µM | without (if any) incidence of EADs | – | – | – | – | – | – | IC50 (Nav1.5; [12]): 69700 ± 1000 nM; IC50 (Nav1.5; Nav1.5 IC50 used for AP simulation, value entered in in silico hiPSC-CM AP model (Figure 8C)): 8900 nM and 10000 nM; IC50 (Nav1.5; human, pH 7.4, Nav1.5 IC50 (peak INa inhibition)): 6400 ± 1000 nM; Effect on APD90 / AP prolongation (in words) (hiPSC-CMs; hiPSC-CMs): only slightly prolonged the AP; also recorded: slightly prolonged the AP at high concentrations; IC50 ([1]; pH 7.4, Cav1.2 IC50 (peak IBa inhibition)): 190 ± 3 nM; IC50 ([1]; pH 7.4, Cav1.2 IC50 used for AP simulation): 200 nM; Peak current decay after 20 pulses at 1 Hz (use-dependent block) ([2]; 100 nM): 42 ± 6%; Resting state and use-dependent block of Cav1.2 [2]: pronounced resting state block and additional use‐dependent block; Cav1.2 IC50 (peak IBa inhibition) ([2]; rabbit, pH 7.4): 192 ± 28 nM
9 | CCN(CCOc1ccc([N+](=O)[O-])cc1)CCc1ccc([N+](=O)[O-])cc1 [Dofe54] | 2.6 ± 0.4 nM | – | – | – | – | – | incidence of EADs at the higher concentrations | 1.2 ± 0.6 nM | ≤ 1000% | 107% | – | 702% | 0.0043 µM | activity at 0.1 µM (hiPSC-CMs; [9]): 710%
10 | O=[N+]([O-])c1ccc(CCN(CCF)CCOc2ccc([N+](=O)[O-])cc2)cc1 [Dofe60] | – | – | – | – | – | – | incidence of EADs at the higher concentrations | – | ≤ 1000% | 95% | 112% | 185% | 0.0213 µM | activity at 0.1 µM (hiPSC-CMs; [9]): 771%; activity at 0.3 µM (hiPSC-CMs; [10]): 413%
11 | CN(CCCOc1ccc([N+](=O)[O-])cc1)Cc1ccc([N+](=O)[O-])cc1 [Dofe78] | 28.2 ± 4.9 nM | 116% | 420% | 300% | 417% | 0.02 µM | incidence of EADs at the higher concentrations | 5.1 ± 1.9 nM | ≤ 1000% | – | – | – | – | –
12 | CN(CCCCOc1ccc([N+](=O)[O-])cc1)CCc1ccc([N+](=O)[O-])cc1 [Dofe81] | 10.7 nM | – | – | – | – | – | incidence of EADs at the higher concentrations | – | ≤ 1000% | 117% | 389% | 858% | 0.0025 µM | Ki (hERG potassium channels): 1.8 ± 1.6 nM
13 | CN(CCOc1ccc(NS(C)(=O)=O)cc1)CCc1ccc(NS(C)(=O)=O)cc1 [Dofetilide, reference compound] | – | – | – | – | – | 4e-05 µM | incidence of EADs at concentrations of 10, 30 and 100 nM | – | – | 246% | 641% | 827% | – | Spontaneous rate of myocyte contraction (hiPSC-CMs; 100 nM, hiPSC-CMs): dramatically increased; activity at 0.0001 µM (hiPSC-CMs; Homo sapiens, 0.5 h, read-out: Changes in APD90 in hiPSC-CMs, 0.1 nM, 30 min exposure): 191%; Ki (hERG potassium channels): 4.1 ± 0.9 nM

From publication PMC5573420, “Correlation between human ether‐a‐go‐go‐related gene channel inhibition and action potential prolongation” (British Journal of Pharmacology, 2017)
